Test results reported in US9884821B2, “N1-cyclic amine-N5-substituted biguanide derivatives, methods of preparing the same and pharmaceutical composition comprising the same” (IMMUNOMET THERAPEUTICS INC., priority 2013, dated 2018).
Where a name gives a salt, the structure may show the parent alone.

How the values were obtained:
AMPK = AMPK activation effect (AMPK [pT172] ELISA) in MCF7 cells; type: cell-based, human; settings: 24 hours; for AMPK activation effect (%) 10 μM / AMPK activation effect (%) 5 μM / AMPK activation effect (%) 50 μM: AMPKα Thr172 phosphorylation relative to untreated cells; for AC150: concentration at which AMPK activation reached 150%
In short: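 MCF7 cells in DMEM/10% FBS were treated 24 h with compounds at 5, 10 and 50 uM. Lysates (20 μg protein) were assayed by ELISA for AMPKα Thr172 phosphorylation as the activation read-out.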

HCT116 cells = assay: Effect of inhibiting cancer cell proliferation (MTT) in HCT116 cells; type: cell-based, human; settings: for inhibition at 100 µM: read-out: Cell growth inhibition (%) at 100 μM; for inhibition at 25 µM: read-out: Cell growth inhibition (%) at 25 μM
In short: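 HCT116 colorectal cells (about 5,000 per well, DMEM with 10% FBS) treated with 100, 25, 6.25, 1.56 or 0.39 μM compound for 48 h. MTT added for 3 h, formazan read at 560 nm; GIC50 taken from viability relative to untreated cells.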

[1] = Homo sapiens, HCT-116, 48 h, 25 μM

SMILES	GI50 (HCT116 cells; Homo sapiens, HCT-116, 48 h) [µM]	GI50 (HCT116 cells; 48 hours, hydrochloride) [µM]	AMPK activation effect (%) 10 μM (AMPK) [%]	AC150 (AMPK) [µM]	inhibition at 100 µM (HCT116 cells; Homo sapiens, HCT-116, 48 h) [%]	AMPK activation effect (%) 5 μM (AMPK) [%]	inhibition at 25 µM (HCT116 cells; [1]) [%]	AMPK activation effect (%) 50 μM (AMPK) [%]	AMPK activation effect (%) 5 μM (AMPK; hydrochloride) [%]	AMPK activation effect (%) 10 μM (AMPK; hydrochloride) [%]	AC150 (AMPK; hydrochloride) [µM]	Cell growth inhibition (%) at 25 μM (HCT116 cells; 25 μM, 48 hours, hydrochloride) [%]
CC1=CCN(C(=N)NC(=N)Nc2ccc(C(F)(F)F)cc2)C1.Cl [Example 16, N1-(3-methyl)-1,2-dihydropyrrole-N5-(4-trifluoromethyl)phenyl biguanide hydrochloride]	10.8	–	398	1.7	99.3	–	–	–	–	–	–	–
Cl.N=C(NC(=N)N1CC=CCC1)Nc1ccccc1 [Example 39, N1-1,2,3,6-tetrahydropyridine-N5-phenyl biguanide hydrochloride]	124	–	96	67.2	39.8	–	–	138	–	–	–	–
Cl.N=C(NCc1cccc(OC(F)(F)F)c1)NC(=N)N1CC=CCC1 [Example 55, N1-1,2,3,6-tetrahydropyridine-N5-(3-trifluoromethoxy)benzyl biguanide hydrochloride]	22.8	–	389	2.1	97.9	–	–	608	–	–	–	–
Cl.N=C(NC(=N)N1CC=CC1)Nc1ccc(Cl)cc1 [Example 8, N1-1,2-dihydropyrrole-N5-(4-chloro)phenyl biguanide hydrochloride]	42.8	–	139	8.3	99.1	–	–	515	–	–	–	–
COc1ccc(NC(=N)NC(=N)N2CC=C(C)C2)cc1OC.Cl [Example 23, N1-(3-methyl)-1,2-dihydropyrrole-N5-(3,4-dimethoxy)phenyl biguanide hydrochloride]	89.9	–	57	21.3	29.5	–	–	279	–	–	–	–
CCCNC(=N)NC(=N)N1CC=CCC1.Cl [Example 60, N1-1,2,3,6-tetrahydropyridine-N5-propyl biguanide hydrochloride]	99.8	–	108	12.4	50.1	–	–	338	–	–	–	–
Cl.N=C(NC(=N)N1CC=CCC1)Nc1ccc(Cl)c(C(F)(F)F)c1 [Example 33, N1-1,2,3,6-tetrahydropyridine-N5-(4-chloro, 3-trifluoromethyl)phenyl biguanide hydrochloride]	3.7	–	992	0.79	99.4	–	–	–	–	–	–	–
CC1=CCN(C(=N)NC(=N)Nc2ccc(F)cc2)C1.Cl [Example 20, N1-(3-methyl)-1,2-dihydropyrrole-N5-(4-fluoro)phenyl biguanide hydrochloride]	54.8	–	83	38.3	93.1	–	–	172	–	–	–	–
CC1=CCN(C(=N)NC(=N)Nc2cccc(OC(F)(F)F)c2)C1.Cl [Example 25, N1-(3-methyl)-1,2-dihydropyrrole-N5-(3-trifluoromethoxy)phenyl biguanide hydrochloride]	4.9	–	376	2.2	96.6	–	–	–	–	–	–	–
Cl.N=C(NC(=N)N1CC=CCC1)Nc1ccc(OC(F)(F)F)c(F)c1 [Example 34, N1-1,2,3,6-tetrahydropyridine-N5-(3-fluoro, 4-trifluoromethoxy)phenyl biguanide hydrochloride]	6.6	–	925	0.29	99.4	–	–	–	–	–	–	–
Cl.N=C(NC(=N)N1CC=CC1)Nc1cccc(OC(F)(F)F)c1 [Example 52, N1-1,2-dihydropyrrole-N5-(3-trifluoromethoxy)phenyl biguanide hydrochloride]	15.4	–	352	2.7	100	–	–	–	–	–	–	–
Cc1cccc(NC(=N)NC(=N)N2CC=CCC2)c1.Cl [Example 49, N1-1,2,3,6-tetrahydropyridine-N5-(3-methyl)phenyl biguanide hydrochloride]	57	–	319	1.9	91.8	–	–	917	–	–	–	–
CC1=CCN(C(=N)NC(=N)Nc2ccc(Cl)c(C(F)(F)F)c2)C1.Cl [Example 18, N1-(3-methyl)-1,2-dihydropyrrole-N5-(4-chloro, 3-trifluoromethyl)phenyl biguanide hydrochloride]	2.6	–	–	0.81	99.5	–	–	–	–	–	–	–

Continued, in another order:

GI50 (HCT116 cells; Homo sapiens, HCT-116, 48 h) [µM]	GI50 (HCT116 cells; 48 hours, hydrochloride) [µM]	SMILES	AMPK activation effect (%) 10 μM (AMPK) [%]	AC150 (AMPK) [µM]	inhibition at 100 µM (HCT116 cells; Homo sapiens, HCT-116, 48 h) [%]	AMPK activation effect (%) 5 μM (AMPK) [%]	inhibition at 25 µM (HCT116 cells; [1]) [%]	AMPK activation effect (%) 50 μM (AMPK) [%]	AMPK activation effect (%) 5 μM (AMPK; hydrochloride) [%]	AMPK activation effect (%) 10 μM (AMPK; hydrochloride) [%]	AC150 (AMPK; hydrochloride) [µM]	Cell growth inhibition (%) at 25 μM (HCT116 cells; 25 μM, 48 hours, hydrochloride) [%]
18.3	–	CC1CCCN(C(=N)NC(=N)NCc2cccc(C(F)(F)F)c2)C1.Cl (stereo not drawn) [Example 65, N1-(3-methyl)piperidine-N5-(3-trifluoromethyl)benzyl biguanide hydrochloride]	274	2.8	–	147	66.7	–	–	–	–	–
27.6	–	CC1CCCN(C(=N)NC(=N)NCc2ccc(C(F)(F)F)cc2)C1.Cl (stereo not drawn) [Example 86, N1-(3-methyl)piperidine-N5-(4-trifluoromethyl)benzyl biguanide hydrochloride]	330	2.3	–	147	49	–	–	–	–	–
–	7.1	CC1CCCN(C(=N)NC(=N)Nc2ccc(F)c(C(F)(F)F)c2)C1.Cl (stereo not drawn) [Example 85, N1-(3-methyl)piperidine-N5-(4-fluoro, 3-trifluoromethyl)phenyl biguanide hydrochloride]	–	–	–	–	–	–	345	436	0.7	100.2
9.2	–	CC1CCCN(C(=N)NC(=N)Nc2ccc(F)cc2)C1.Cl (stereo not drawn) [Example 67, N1-(3-methyl)piperidine-N5-(4-fluoro)phenyl biguanide hydrochloride]	427	1.6	–	258	100	–	–	–	–	–
2.9	–	CC1CCCC(C)N1C(=N)NC(=N)Nc1ccc(OC(F)(F)F)c(F)c1.Cl (stereo not drawn) [Example 95, N1-(2,6-dimethyl)piperidine-N5-(3-fluoro, 4-trifluoromethoxy)phenyl biguanide]	326	3.1	–	130	101	–	–	–	–	–
11.3	–	CC1CCCCN1C(=N)NC(=N)Nc1ccc(Cl)cc1.Cl (stereo not drawn) [Example 77, N1-(2-methyl)piperidine-N5-(4-chloro)phenyl biguanide hydrochloride]	212	4.5	–	154	100	–	–	–	–	–
7	–	CC1CCCN(C(=N)NC(=N)Nc2ccc(OC(F)(F)F)cc2)C1.Cl (stereo not drawn) [Example 82, N1-(3-methyl)piperidine-N5-(4-trifluoromethoxy)phenyl biguanide hydrochloride]	474	0.5	–	401	100	–	–	–	–	–
10	–	CC1CCCN(C(=N)NC(=N)Nc2ccc(Cl)cc2)C1.Cl (stereo not drawn) [Example 87, N1-(3-methyl)piperidine-N5-(4-chloro)phenyl biguanide hydrochloride]	297	1.9	–	219	100	–	–	–	–	–
9.1	–	CC1CCCC(C)N1C(=N)NC(=N)Nc1ccc(Br)cc1 (stereo not drawn) [Example 97, N1-(2,6-dimethyl)piperidine-N5-(4-bromo)phenyl biguanide hydrochloride]	233	4.2	–	143	100	–	–	–	–	–
45.4	–	CC1CCCC(C)N1C(=N)NC(=N)Nc1ccc(F)cc1.Cl (stereo not drawn) [Example 98, N1-(2,6-dimethyl)piperidine-N5-(4-fluoro)phenyl biguanide hydrochloride]	244	2.8	–	239	28.2	–	–	–	–	–
5.8	–	CC1CCCCN1C(=N)NC(=N)Nc1ccc(OC(F)(F)F)c(F)c1.Cl (stereo not drawn) [Example 76, N1-(2-methyl)piperidine-N5-(3-fluoro, 4-trifluoromethoxy)phenyl biguanide hydrochloride]	375	1.7	–	242	100	–	–	–	–	–
3.2	–	CC1CCCC(C)N1C(=N)NC(=N)Nc1cccc(OC(F)(F)F)c1.Cl (stereo not drawn) [Example 90, N1-(2,6-dimethyl)piperidine-N5-(3-trifluoromethoxy)phenyl biguanide hydrochloride]	317	0.8	–	281	100	–	–	–	–	–
7.7	–	CC1CCCN(C(=N)NC(=N)Nc2ccc(C(F)(F)F)cc2)C1.Cl (stereo not drawn) [Example 81, N1-(3-methyl)piperidine-N5-(4-trifluoromethyl)phenyl biguanide hydrochloride]	396	1.9	–	224	100	–	–	–	–	–
